In patent US20230114728A1 (Venatorx Pharmaceuticals, Inc., priority 2019, published 2023):
Values after ≈ are worked out from the molar mass of the structure shown.

Tests used:
[1] = molecular target: T1, E. coli K12 PBP3 (Escherichia coli, UniProt P0AD68); assay: biochemical; assay type: binding
T1 construct: made in house
Procedure, shortened: (§1)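 Fluorescence polarization (ex 490/em 520 nm) competition of inhibitors against Bocillin-FL at 0.1 μM, read up to 60 min. Final PBP levels: E. coli PBP3 1.5 μM; A. baumannii PBP2 2.5 μM, PBP3 0.2 μM in Tris pH 8.0/NaCl/glycerol/Tween 20; N. gonorrhoeae PBP2 […] in Hepes pH 8.0/NaCl/glycerol. EC50 = concentration halving PBP-bound Bocillin-FL.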

[2] = Bocillin-FL fluorescence polarization competition binding assay, A. baumannii PBP3; details: fluorescence polarization competition binding assay using Bocillin-FL; column 3; read-out: 4. baumannii PBP1a Potency
Procedure, shortened: as §1

[3] = test system: N. gonorrhoeae WHO Q; assay: Liquid broth MIC in Fastidious broth; assay type: cell-based; details: Neisseria gonorrhoeae, read-out: Minimum Inhibitory Concentration, N. gonorrhoeae WHO Q
Procedure, shortened: (§2)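 Mosaic PBP2 producers; colonies from 24 h chocolate agar, saline suspension, OD600. Fastidious broth, 2-fold dilutions, 5×10^5 CFU/mL. ~24 h, 36 °C, 5% CO2; visual MIC, <10% growth cutoff.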

[4] = test system: N. gonorrhoeae WHO Z; assay: Liquid broth MIC in Fastidious broth; assay type: cell-based; details: Neisseria gonorrhoeae, read-out: Minimum Inhibitory Concentration, N. gonorrhoeae WHO Z
Procedure, shortened: as §2

T1 sequence (P0AD68 1-577): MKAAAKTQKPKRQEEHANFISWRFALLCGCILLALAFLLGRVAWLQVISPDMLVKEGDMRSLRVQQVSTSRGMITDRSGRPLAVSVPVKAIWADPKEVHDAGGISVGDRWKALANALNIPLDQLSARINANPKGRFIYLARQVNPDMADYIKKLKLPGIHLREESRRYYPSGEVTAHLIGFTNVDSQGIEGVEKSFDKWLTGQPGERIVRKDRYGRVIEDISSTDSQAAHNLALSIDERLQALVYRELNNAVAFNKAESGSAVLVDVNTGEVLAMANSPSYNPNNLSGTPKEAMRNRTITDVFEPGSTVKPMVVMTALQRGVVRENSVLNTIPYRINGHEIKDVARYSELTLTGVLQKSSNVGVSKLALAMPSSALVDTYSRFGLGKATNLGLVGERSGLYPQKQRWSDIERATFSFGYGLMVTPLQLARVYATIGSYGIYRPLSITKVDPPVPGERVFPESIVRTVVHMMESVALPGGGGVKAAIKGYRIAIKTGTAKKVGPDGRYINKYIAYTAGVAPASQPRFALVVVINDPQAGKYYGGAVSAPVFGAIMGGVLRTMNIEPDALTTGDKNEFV

SMILES: NCCN1CCN(C(=O)N[C@@H](C(=O)N[C@H]2Cc3cccc(C(=O)O)c3OB2O)c2ccc(C(=O)O)cc2)C(=O)C1=O (single isomer, unassigned) [Example 84]
- EC50 [1]: < 30 µM
- EC50 [2]: 30 to 100 µM
- MIC [3]: 16 to 32 µg/mL (≈ 28.2 to 56.4 µM)
- MIC [4]: 16 to 32 µg/mL (≈ 28.2 to 56.4 µM)

SMILES: NCCN1CCN(C(=O)N[C@H](C(=O)N[C@H]2Cc3cccc(C(=O)O)c3OB2O)c2ccc(O)cc2Cl)C(=O)C1=O (single isomer, unassigned) [Example 85]
- EC50 [1]: 30 to 500 µM
- EC50 [2]: > 100 µM
- MIC [3]: > 64 µg/mL
- MIC [4]: > 64 µg/mL

SMILES: NCCN1CCN(C(=O)N[C@@H](C(=O)N[C@H]2Cc3cccc(C(=O)O)c3OB2O)c2ccc(O)cc2Cl)C(=O)C1=O (single isomer, unassigned) [Example 86]
- EC50 [1]: < 30 µM
- EC50 [2]: 10 to 30 µM
- MIC [3]: > 64 µg/mL
- MIC [4]: > 64 µg/mL

SMILES: O=C(O)c1ccc(C(NC(=O)c2ccc(O)c(O)c2Cl)C(=O)N[C@H]2Cc3cccc(C(=O)O)c3OB2O)cc1F (stereo partly drawn) [Example 7, (3R)-3-(2-(4-carboxy-3-fluorophenyl)-2-(2-chloro-3,4-dihydroxybenzamido)acetamido)-2-hydroxy-3,4-dihydro-2H-benzo[e][1,2]oxaborinine-8-carboxylic acid]
- EC50 [1]: 30 to 500 µM
- EC50 [2]: > 100 µM

SMILES: O=C(NC(C(=O)N[C@H]1Cc2ccc(F)c(C(=O)O)c2OB1O)c1ncc(O)cc1F)c1ccc(O)c(O)c1Cl (stereo partly drawn) [Example 8, (3R)-3-(2-(2-chloro-3,4-dihydroxybenzamido)-2-(3-fluoro-5-hydroxypyridin-2-yl)acetamido)-7-fluoro-2-hydroxy-3,4-dihydro-2H-benzo[e][1,2]oxaborinine-8-carboxylic acid]
- EC50 [1]: 30 to 500 µM
- EC50 [2]: > 100 µM

SMILES: O=C(Nc1ccc(O)c(O)c1Cl)NC(C(=O)N[C@H]1Cc2ccc(F)c(C(=O)O)c2OB1O)c1ncc(O)cc1F (stereo partly drawn) [Example 9, (3R)-3-(2-(3-(2-chloro-3,4-dihydroxyphenyl)ureido)-2-(3-fluoro-5-hydroxypyridin-2-yl)acetamido)-7-fluoro-2-hydroxy-3,4-dihydro-2H-benzo[e][1,2]oxaborinine-8-carboxylic acid]
- EC50 [1]: 30 to 500 µM
- EC50 [2]: 30 to 100 µM

SMILES: O=C(O)c1ccc(C(NC(=O)N2CCN(CCNC(=O)c3ccc(O)c(O)c3Cl)C(=O)C2=O)C(=O)N[C@H]2Cc3ccc(F)c(C(=O)O)c3OB2O)cc1F (stereo partly drawn) [Example 11, (3R)-3-(2-(4-carboxy-3-fluorophenyl)-2-(4-(2-(2-chloro-3,4-dihydroxybenzamido)ethyl)-2,3-dioxopiperazine-1-carboxamido)acetamido)-7-fluoro-2-hydroxy-3,4-dihydro-2H-benzo[e][1,2]oxaborinine-8-carboxylic acid]
- EC50 [1]: < 30 µM
- EC50 [2]: 10 to 30 µM
- MIC [4]: 16 to 32 µg/mL (≈ 20.7 to 41.4 µM)

SMILES: CCN1CCN(C(=O)NC(C(=O)N[C@H]2Cc3ccc(F)c(C(=O)O)c3OB2O)c2ccc(C(=O)O)cc2)C(=O)C1=O (stereo partly drawn) [Example 15, (3R)-3-(2-(4-carboxyphenyl)-2-(4-ethyl-2,3-dioxopiperazine-1-carboxamido)acetamido)-7-fluoro-2-hydroxy-3,4-dihydro-2H-benzo[e][1,2]oxaborinine-8-carboxylic acid]
- EC50 [1]: < 30 µM
- EC50 [2]: > 100 µM
- MIC [4]: 1 to 2 µg/mL (≈ 1.75 to 3.51 µM)

SMILES: CS(=O)(=O)N1CCN(C(=O)NC(C(=O)N[C@H]2Cc3ccc(F)c(C(=O)O)c3OB2O)c2ccc(O)c(O)c2Cl)C1=O (stereo partly drawn) [Example 23, (3R)-3-(2-(2-chloro-3,4-dihydroxyphenyl)-2-(3-(methylsulfonyl)-2-oxoimidazolidine-1-carboxamido)acetamido)-7-fluoro-2-hydroxy-3,4-dihydro-2H-benzo[e][1,2]oxaborinine-8-carboxylic acid]
- EC50 [1]: < 30 µM
- EC50 [2]: 30 to 100 µM

SMILES: NC(C(=O)N[C@H]1Cc2ccc(F)c(C(=O)O)c2OB1O)c1c(F)cc(O)c(O)c1Cl (stereo partly drawn) [Example 25, (3R)-3-(2-amino-2-(2-chloro-6-fluoro-3,4-dihydroxyphenyl)acetamido)-7-fluoro-2-hydroxy-3,4-dihydro-2H-benzo[e][1,2]oxaborinine-8-carboxylic acid]
- EC50 [1]: 30 to 500 µM
- EC50 [2]: > 100 µM

SMILES: CCN1CCN(C(=O)NC(C(=O)N[C@H]2Cc3cccc(C(=O)O)c3OB2O)c2ccc(C(=O)O)c(F)c2)C(=O)C1=O (stereo partly drawn) [Example 31, (3R)-3-(2-(4-carboxy-3-fluorophenyl)-2-(4-ethyl-2,3-dioxopiperazine-1-carboxamido)acetamido)-2-hydroxy-3,4-dihydro-2H-benzo[e][1,2]oxaborinine-8-carboxylic acid]
- EC50 [1]: < 30 µM
- EC50 [2]: < 10 µM
- MIC [4]: 1 to 2 µg/mL (≈ 1.75 to 3.51 µM)

SMILES: CCN1CCN(C(=O)NC(C(=O)N[C@H]2Cc3ccc(F)c(C(=O)O)c3OB2O)c2c(F)cc(O)c(O)c2F)C(=O)C1=O (stereo partly drawn) [Example 36, (3R)-3-(2-(2,6-difluoro-3,4-dihydroxyphenyl)-2-(4-ethyl-2,3-dioxopiperazine-1-carboxamido)acetamido)-7-fluoro-2-hydroxy-3,4-dihydro-2H-benzo[e][1,2]oxaborinine-8-carboxylic acid]
- EC50 [1]: < 30 µM
- EC50 [2]: 10 to 30 µM

SMILES: O=C(O)c1c(F)ccc2c1OB(O)[C@@H](NC(=O)C(NC(=O)N1CCN(CCF)C(=O)C1=O)c1c(F)cc(O)c(O)c1F)C2 (stereo partly drawn) [Example 37, (3R)-3-(2-(2,6-difluoro-3,4-dihydroxyphenyl)-2-(4-(2-fluoroethyl)-2,3-dioxopiperazine-1-carboxamido)acetamido)-7-fluoro-2-hydroxy-3,4-dihydro-2H-benzo[e][1,2]oxaborinine-8-carboxylic acid]
- EC50 [1]: < 30 µM
- EC50 [2]: 30 to 100 µM

SMILES: O=C(O)c1c(F)ccc2c1OB(O)[C@@H](NC(=O)C(NC(=O)N1CCN(CCBr)C(=O)C1=O)c1c(F)cc(O)c(O)c1F)C2 (stereo partly drawn) [Example 38, (3R)-3-(2-(4-(2-bromoethyl)-2,3-dioxopiperazine-1-carboxamido)-2-(2,6-difluoro-3,4-dihydroxyphenyl)acetamido)-7-fluoro-2-hydroxy-3,4-dihydro-2H-benzo[e][1,2]oxaborinine-8-carboxylic acid]
- EC50 [1]: < 30 µM
- EC50 [2]: 10 to 30 µM

SMILES: NCCCN1CCN(C(=O)NC(C(=O)N[C@H]2Cc3cccc(C(=O)O)c3OB2O)c2ccc(C(=O)O)cc2)C(=O)C1=O (stereo partly drawn) [Example 39, (3R)-3-(2-(4-(3-aminopropyl)-2,3-dioxopiperazine-1-carboxamido)-2-(4-carboxyphenyl)acetamido)-2-hydroxy-3,4-dihydro-2H-benzo[e][1,2]oxaborinine-8-carboxylic acid]
- EC50 [1]: < 30 µM
- EC50 [2]: 30 to 100 µM

SMILES: CCN1CCN(C(=O)NC(C(=O)N[C@H]2Cc3ccc(F)c(C(=O)O)c3OB2O)c2cc(F)c(O)c(O)c2Cl)C(=O)C1=O (stereo partly drawn) [Example 42, (3R)-3-(2-(2-chloro-5-fluoro-3,4-dihydroxyphenyl)-2-(4-ethyl-2,3-dioxopiperazine-1-carboxamido)acetamido)-7-fluoro-2-hydroxy-3,4-dihydro-2H-benzo[e][1,2]oxaborinine-8-carboxylic acid]
- EC50 [1]: < 30 µM
- EC50 [2]: 30 to 100 µM

SMILES: O=C(O)c1ccc(C(NC(=O)c2c(F)cc(O)c(O)c2Cl)C(=O)N[C@H]2Cc3ccc(F)c(C(=O)O)c3OB2O)cc1F (stereo partly drawn) [Example 71, (3R)-3-(2-(4-carboxy-3-fluorophenyl)-2-(2-chloro-6-fluoro-3,4-dihydroxybenzamido)acetamido)-7-fluoro-2-hydroxy-3,4-dihydro-2H-benzo[e][1,2]oxaborinine-8-carboxylic acid]
- EC50 [1]: > 500 µM
- EC50 [2]: > 100 µM
- MIC [3]: > 64 µg/mL
- MIC [4]: > 64 µg/mL

SMILES: CCN1CCN(C(=O)NC(C(=O)N[C@H]2Cc3cccc(C(=O)O)c3OB2O)c2cccc(NC(=O)c3ccc(O)c(O)c3Cl)c2)C(=O)C1=O (stereo partly drawn) [Example 73, (3R)-3-(2-(3-(2-chloro-3,4-dihydroxybenzamido)phenyl)-2-(4-ethyl-2,3-dioxopiperazine-1-carboxamido)acetamido)-2-hydroxy-3,4-dihydro-2H-benzo[e][1,2]oxaborinine-8-carboxylic acid]
- EC50 [1]: < 30 µM
- EC50 [2]: < 10 µM
- MIC [3]: > 64 µg/mL
- MIC [4]: > 64 µg/mL

SMILES: CCN1CCN(C(=O)NC(C(=O)N[C@H]2Cc3cccc(C(=O)O)c3OB2O)c2ccc(O)c(NC(=O)c3ccc(O)c(O)c3Cl)c2)C(=O)C1=O (stereo partly drawn) [Example 74, (3R)-3-(2-(3-(2-chloro-3,4-dihydroxybenzamido)-4-hydroxyphenyl)-2-(4-ethyl-2,3-dioxopiperazine-1-carboxamido)acetamido)-2-hydroxy-3,4-dihydro-2H-benzo[e][1,2]oxaborinine-8-carboxylic acid]
- EC50 [1]: < 30 µM
- EC50 [2]: < 10 µM
- MIC [3]: > 64 µg/mL
- MIC [4]: > 64 µg/mL

SMILES: CC(C)(C)[C@@H](NC(=O)N1CCN(CCNC(=O)c2c(F)cc(O)c(O)c2Cl)C(=O)C1=O)C(=O)N[C@H]1Cc2ccc(F)c(C(=O)O)c2OB1O [Example 80, (R)-3-((R)-2-(4-(2-(2-chloro-6-fluoro-3,4-dihydroxybenzamido)ethyl)-2,3-dioxopiperazine-1-carboxamido)-3,3-dimethylbutanamido)-7-fluoro-2-hydroxy-3,4-dihydro-2H-benzo[e][1,2]oxaborinine-8-carboxylic acid]
- EC50 [1]: < 30 µM
- EC50 [2]: < 10 µM
- MIC [3]: > 64 µg/mL
- MIC [4]: > 64 µg/mL
